Results: US8716287B2, “Pharmaceutical compounds” (Sentinel Oncology Limited, priority 2010, dated 2014)
pIC50: −log10 of the molar value. Entries after “also recorded” stand apart in the source; their conditions may differ. Where a name gives a salt, the structure may show the parent alone. Read-outs that look alike come from different tables or passages of the source.

How the values were obtained:
[1] = target: Chk-1 kinase (Homo sapiens (Human), UniProt O14757); assay: Chk-1 kinase inhibiting activity (33P-ATP filter assay, CHKtide substrate); assay type: biochemical
Chain of Chk-1 kinase (O14757 whole entry): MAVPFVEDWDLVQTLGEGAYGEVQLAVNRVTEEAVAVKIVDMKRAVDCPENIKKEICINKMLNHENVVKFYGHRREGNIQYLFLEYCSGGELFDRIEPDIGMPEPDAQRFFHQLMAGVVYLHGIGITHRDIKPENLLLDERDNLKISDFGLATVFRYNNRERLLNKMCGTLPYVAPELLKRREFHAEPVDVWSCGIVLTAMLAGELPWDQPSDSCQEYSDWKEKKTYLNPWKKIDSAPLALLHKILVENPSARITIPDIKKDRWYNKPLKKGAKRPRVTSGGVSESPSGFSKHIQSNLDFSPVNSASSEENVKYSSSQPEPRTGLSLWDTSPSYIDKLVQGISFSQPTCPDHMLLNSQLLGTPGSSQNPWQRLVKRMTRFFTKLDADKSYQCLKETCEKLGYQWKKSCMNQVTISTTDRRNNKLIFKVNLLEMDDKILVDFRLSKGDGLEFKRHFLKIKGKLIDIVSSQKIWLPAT
Description: The compounds of the invention were tested for activity against Chk-1 kinase using the materials and protocols set out below.
Base Reaction buffer: 20 mM Hepes (pH 7.5), 10 mM MgCl2, 1 mM EGTA, 0.02% Brij35, 0.02 mg/ml BSA, 0.1 mM Na3VO4, 2 mM DTT, 1% DMSO
*Required cofactors are added individually to each kinase reaction
(i) Prepare indicated substrate in freshly prepared Base Reaction Buffer
(ii) Deliver any required cofactors to the substrate solution above
(iii) Deliver indicated kinase into the substrate solution and gently mix
(iv) Deliver compounds in DMSO into the kinase reaction mixture
(v) Deliver ^33P-ATP (specific activity 0.01 μCi/μl final) into the reaction mixture to initiate the reaction.
(vi) Incubate kinase reaction for 120 minutes at room temperature
(vii) Reactions are spotted onto P81 ion exchange paper (Whatman #3698-915)
(viii) Wash filters extensively in 0.1% phosphoric acid.
(ix) Dry filters and measure counts in scintillation counter
Recombinant full length construct, N-terminal GST tagged, purified from insect cells.
No special measures were taken to activate this kinase.
Final concentration in assay=0.5 nM
Peptide sequence: [[…]]
Final concentration in assay=20 μM
No additional cofactors are added to the reaction mixture

[2] = system: HT29 cells; assay: Sensitisation of HT29 cells to SN38 (Alamar blue cell growth); assay type: cell-based, human; conditions: HT29 cells
Description: Studies were carried out to test the sensitising effect of compounds of the invention on the ability of the DNA damaging compound 7-ethyl-10-hydroxycamptothecin (SN38), an active metabolite of the anti-cancer drug irinotecan, to inhibit cell growth in HT29 cells.
(§1) The following protocol was used:
(a) HT29 cells were seeded in 96-well plates at a concentration of 3000 cells per well and allowed to adhere overnight prior to addition of compound or vehicle control.
(b) SN38 was prepared from a 10 mM DMSO stock to give a final concentration range of 1 μM, 300 nM, 100 nM, 30 nM, 10 nM, 3 nM, 1 nM, and vehicle control.
(c) Test compounds were prepared from 10 mM DMSO stocks to typically give a final concentration range of 3 μM, 1 μM, 0.3 μM. 0.1 μM, 0.03 μM and vehicle control. The final DMSO content was 0.4%.
(d) Test compounds were incubated with the cells for 72 h at 37° C. 5% CO2 in a humidified atmosphere.
(e) Alamar blue 10% (v/v) was then added and incubated for a further 6 h, and fluorescent product detected using the BMG FLUOstar plate reader.
(f) Data were analysed using a 4-parameter logistic equation in GraphPad Prism.
Sensitisation is determined by the enhancement in IC50 of SN38 by the addition of the Chk-1 kinase inhibitor. In the protocol described above, the IC50 for SN-38 is determined the presence of varying doses of the Chk-1 inhibitor. The fold shift represents a decrease in IC50 for SN-38 at a dose of Chk-1 inhibitor that has no effect by itself.

[3] = system: MOLM-13 cells; assay: Inhibition of cell growth in MOLM-13 cells (Alamar blue); assay type: cell-based; conditions: Homo sapiens, 72 h incubation
Description: (§2) Studies were carried out to test the effect of compounds on the inhibition of cell growth in MOLM-13 and MV4-11 cells.
as §1
(§3) (a) Cells were seeded in 96-well plates at cell densities of 2500/well (MOLM-13) and 10,000/well (MV4-11). Cells were then incubated overnight prior to addition of compound or vehicle control.
(§4) (b) Test compounds were prepared from 10 mM DMSO stocks to give a final concentration range of 10 μM, 3 μM, 1 μM, 0.3 μM, 0.1 μM, […], […] and vehicle control. The DMSO content was constant at 0.1%.
(§5) (c) Test compounds were incubated with the cells for 72 h at 37° C. 5% CO2 in a humidified atmosphere.
(§6) (d) Alamar blue 10% (v/v) was then added and incubated for a further 4 h, and fluorescent product detected using the BMG FLUOstar plate reader.
(§7) (e) Media only background values were subtracted and the data analysed using a 4-parameter logistic equation in GraphPad Prism.
(§8) From the results obtained by following the above protocol, the IC50 values against MOLM-13 and MV4-11 cells of the compounds of Examples 20, 21, 22, 25, 33, 35, 37, 38, 44, 48, 49, 50, 51, 53, 54 and 55 were determined.

[4] = system: MV4-11 cells; assay: Inhibition of cell growth in MV4-11 cells (Alamar blue); assay type: cell-based; conditions: Homo sapiens, 72 h incubation
Description: as §2, §1, §3, §4, §5, §6, §7, §8

[5] = Chk-1 kinase, Table 3, read-out: IC50
[6] = ranges given, read-out: IC50 values against Chk-1 kinase

pIC50 [1, 5] | pIC50 [1, 6] | pIC50 [3] | pIC50 [4] | Structure (SMILES) | fold shift in the IC50 value of SN38 ([2]; test compound at 3 μM) | fold shift in the IC50 value of SN38 ([2]; test compound at 1 μM)
8.55 | > 8.00 | 6.30 | 6.09 | COc1cc(CCNCc2ccc(F)cc2)ccc1NC(=O)Nc1cnc(C#N)cn1 [Example 20, 1-(5-Cyano-pyrazin-2-yl)-3-{4-[2-(4-fluoro-benzylamino)-ethyl]-2-methoxy-phenyl}-urea] | three; also recorded: greater than ten | –
8.39 | > 8.00 | 5.89 | 5.89 | COc1cc(OCCNCc2ccc(F)cc2)ccc1NC(=O)Nc1cnc(C#N)cn1 [Example 21, 1-(5-Cyano-pyrazin-2-yl)-3-{4-[2-(4-fluorobenzylamino)-ethoxy]-2-methoxy-phenyl}-urea] | – | –
7.00 | 7.00 to 8.00 | < 5.52 | < 5.52 | COc1cc(CNCc2ccccc2)ccc1NC(=O)Nc1cnc(C#N)cn1 [Example 22, 1-[4-(Benzylamino-methyl)-2-methoxy-phenyl]-3-(5-cyano-pyrazin-2-yl)-urea] | three; also recorded: greater than ten | –
7.74 | 7.00 to 8.00 | 5.75 | 5.77 | N#Cc1cnc(NC(=O)Nc2ccc(CCNCc3ccc(N4CCOCC4)cc3)c(Cl)c2)cn1 [Example 25, 1-{3-Chloro-4-[2-(4-morpholin-4-yl-benzylamino)-ethyl]-phenyl}-3-(5-cyano-pyrazin-2-yl)-urea] | – | –
8.52 | > 8.00 | 5.89 | 5.89 | COc1cc(OCCNCc2ccc(F)cc2F)ccc1NC(=O)Nc1cnc(C#N)cn1 [Example 33, 1-(5-Cyano-pyrazin-2-yl)-3-{4-[2-(2,4-difluoro-benzylamino)-ethoxy]-2-methoxy-phenyl}-urea] | three | –
8.85 | > 8.00 | 5.89 | 5.41 | CN1CCN(c2ccc(CNCCc3ccc(NC(=O)Nc4cnc(C#N)cn4)cc3Cl)cc2)CC1 [Example 35, 1-(3-Chloro-4-{2-[4-(4-methyl-piperazin-1-yl)-benzylamino]-ethyl}-phenyl)-3-(5-cyano-pyrazin-2-yl)-urea] | – | two
8.80 | > 8.00 | 6.24 | 6.00 | COc1cc(CCNCc2ccc(F)cc2)c(Cl)cc1NC(=O)Nc1cnc(C#N)cn1 [Example 37, 1-{5-Chloro-4-[2-(4-fluoro-benzylamino)-ethyl]-2-methoxy-phenyl}-3-(5-cyano-pyrazin-2-yl)-urea hydrochloride] | greater than ten | two
8.04 | > 8.00 | 6.21 | 5.61 | CN1CCN(c2cccc(CNCCc3ccc(NC(=O)Nc4cnc(C#N)cn4)cc3Cl)c2)CC1 [Example 38, 1-(3-Chloro-4-{2-[3-(4-methyl-piperazin-1-yl)-benzylamino]-ethyl}-phenyl)-3-(5-cyano-pyrazin-2-yl)-urea] | three | –
8.29 | > 8.00 | 6.07 | 6.02 | COc1cc(CCN[C@@H](C)c2ccc(F)cc2)ccc1NC(=O)Nc1cnc(C#N)cn1 [Example 44, 1-(5-Cyano-pyrazin-2-yl)-3-(4-{2-[(S)-1-(4-fluoro-phenyl)-ethylamino]-ethyl}-2-methoxy-phenyl)-urea] | – | –
9.33 | > 8.00 | 7.00 | 6.72 | COc1cccc(CNCCc2cc(OC)c(NC(=O)Nc3cnc(C#N)cn3)cc2Cl)c1 [Example 48, 1-{5-Chloro-2-methoxy-4-[2-(3-methoxy-benzylamino)-ethyl]-phenyl}-3-(5-cyano-pyrazin-2-yl)-urea hydrochloride] | greater than ten | two
9.55 | > 8.00 | 7.22 | 6.92 | COc1ccc(CNCCc2cc(OC)c(NC(=O)Nc3cnc(C#N)cn3)cc2Cl)cc1 [Example 49, 1-{5-Chloro-2-methoxy-4-[2-(4-methoxy-benzylamino)-ethyl]-phenyl}-3-(5-cyano-pyrazin-2-yl)-urea hydrochloride] | greater than ten | two
9.35 | > 8.00 | 7.15 | 6.51 | COc1cc(CCNCc2ccc(N3CCN(C)CC3)cc2)c(Cl)cc1NC(=O)Nc1cnc(C#N)cn1 [Example 50, 1-(5-Chloro-2-methoxy-4-{2-[4-(4-methyl-piperazin-1-yl)-benzylamino]-ethyl}-phenyl)-3-(5-cyano-pyrazin-2-yl)-urea hydrochloride] | – | two
8.48 | > 8.00 | 6.62 | 6.07 | COc1cc(CCNCc2ccc(N3CCN(C)CC3)cc2)ccc1NC(=O)Nc1cnc(C#N)cn1 [Example 51, 1-(5-Cyano-pyrazin-2-yl)-3-(2-methoxy-4-{2-[4-(4-methyl-piperazin-1-yl)-benzylamino]-ethyl}-phenyl)-urea] | – | –
9.25 | > 8.00 | 7.52 | 6.54 | COc1ccc([C@H](C)NCCc2cc(OC)c(NC(=O)Nc3cnc(C#N)cn3)cc2Cl)cc1 [Example 53, 1-(5-Chloro-2-methoxy-4-{2-[(S)-1-(4-methoxy-phenyl)-ethylamino]-ethyl}-phenyl)-3-(5-cyano-pyrazin-2-yl)-urea hydrochloride] | – | –
– | > 8.00 | 7.85 | 7.28 | COc1cc(CCNCc2ccc3c(c2)OCO3)c(Cl)cc1NC(=O)Nc1cnc(C#N)cn1 [Example 54, 1-(4-{2-[(Benzo[1,3]-dioxol-5-ylmethyl)-amino]-ethyl}-5-chloro-2-methoxy-phenyl)-3-(5-cyano-pyrazin-2-yl)-urea hydrochloride] | – | –
9.32 | > 8.00 | 7.47 | 6.60 | COc1ccccc1CNCCc1cc(OC)c(NC(=O)Nc2cnc(C#N)cn2)cc1Cl [Example 55, 1-{5-Chloro-2-methoxy-4-[2-(2-methoxy-benzylamino)-ethyl]-phenyl}-3-(5-cyano-pyrazin-2-yl)-urea hydrochloride] | – | –
